Assay results: paper doi:10.1101/538157v1 (biorxiv, 2019)

Key:
[1] = target: T1, CAMKK2-KD (kinase domain of CAMKK2) (Homo sapiens, UniProt Q96RR4); experiment: isothermal titration calorimetry; assay type: binding
[2] = target: T1, CAMKK2-KD (kinase domain of CAMKK2); experiment: biochemical; settings: read-out: ΔTm (°C) 96-well

T1 sequence (Q96RR4 161-449): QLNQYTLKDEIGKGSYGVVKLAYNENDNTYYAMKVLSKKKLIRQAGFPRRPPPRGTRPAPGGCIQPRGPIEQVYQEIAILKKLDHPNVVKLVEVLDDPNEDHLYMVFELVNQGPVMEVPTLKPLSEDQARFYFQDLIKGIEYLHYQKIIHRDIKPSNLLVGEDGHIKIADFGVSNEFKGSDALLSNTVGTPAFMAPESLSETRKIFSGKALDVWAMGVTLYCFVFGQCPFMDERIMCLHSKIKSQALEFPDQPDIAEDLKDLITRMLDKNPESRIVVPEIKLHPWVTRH

Row | Kd [1] [nM] | ΔTm at 12 µM [2] [°C] | SMILES
1 | 5.8 |  | COc1cc(N2CCC(N(C)C)CC2)ccc1Nc1ncc(Cl)c(Nc2ccccc2P(C)(C)=O)n1 [ALK-IN-1]
2 | 8.1 |  | CC[C@@H]1C(=O)N(C)c2cnc(Nc3ccc(C(=O)N[C@H]4CC[C@H](N5CCN(CC6CC6)CC5)CC4)cc3OC)nc2N1C(C)C [BI 6727]

The remaining lines, values behind:

Row | SMILES | Kd [1] [nM] | ΔTm at 12 µM [2] [°C]
3 | COc1cc2c(Nc3cc(Cl)c(OC)c(Cl)c3)c(C#N)cnc2cc1OCCCN1CCN(C)CC1 [Bosutinib isomer] |  | 4.1
4 | c1ccc(-c2cnc(Nc3ccc(OCCN4CCCC4)cc3)s2)cc1 [Flt3 Inhibitor III] |  | 7.5
5 | CC(C)(C)c1nc2c3cc[nH]c(=O)c3c3cc(F)ccc3c2[nH]1 [JAK Inhibitor I] |  | 4.7
6 | Cn1cc(/C=C2\C(=O)Nc3ccc(S(N)(=O)=O)cc32)c2ccccc21 [Syk Inhibitor] |  | 9.4
